From US20040082602A1, “Substituted thiophene carboxamide compounds for the treatment of inflammation” (priority 2002, published 2004) come the findings set out here.

Where a name gives a salt, the structure may show the parent alone. Bounds are passed on as bounds.

In the experiment the target is T1, IKK-2 (Homo sapiens, UniProt O14920).
T1 construct: made in house; host or cells: baculovirus (pFastBac) in insect cells; SF9
T1 sequence (O14920 1-756): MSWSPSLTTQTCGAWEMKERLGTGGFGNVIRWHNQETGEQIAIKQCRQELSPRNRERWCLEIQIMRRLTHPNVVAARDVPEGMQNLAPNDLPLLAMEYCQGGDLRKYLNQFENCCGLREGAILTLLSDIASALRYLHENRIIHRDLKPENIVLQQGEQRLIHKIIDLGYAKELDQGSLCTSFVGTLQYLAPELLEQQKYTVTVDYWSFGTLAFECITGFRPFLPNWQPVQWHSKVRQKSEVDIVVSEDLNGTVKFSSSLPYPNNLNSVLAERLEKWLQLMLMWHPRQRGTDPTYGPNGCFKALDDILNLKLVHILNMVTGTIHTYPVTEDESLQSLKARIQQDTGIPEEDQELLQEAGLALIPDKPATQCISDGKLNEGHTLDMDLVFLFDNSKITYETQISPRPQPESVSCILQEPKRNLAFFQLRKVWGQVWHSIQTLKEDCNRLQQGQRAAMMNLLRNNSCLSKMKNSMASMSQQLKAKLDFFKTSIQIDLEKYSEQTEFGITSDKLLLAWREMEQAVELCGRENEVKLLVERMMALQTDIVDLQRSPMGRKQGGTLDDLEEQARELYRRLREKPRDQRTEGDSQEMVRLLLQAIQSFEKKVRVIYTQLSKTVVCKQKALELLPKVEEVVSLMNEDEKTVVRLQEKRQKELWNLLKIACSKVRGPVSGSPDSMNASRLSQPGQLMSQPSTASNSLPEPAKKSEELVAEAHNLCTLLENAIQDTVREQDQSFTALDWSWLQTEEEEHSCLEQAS
Put plainly: IKK-2 Resin assay (IKKβ Resin Enzyme Assay). Type of experiment: biochemical. The conditions noted are these: rhIKK2 homodimer, 5 μM biotinylated IκBα peptide, 1 μM ATP, 25° C., 30 min. From the text: cDNAs of human IKK1 and IKK2 were amplified by reverse transcriptase-polymerase chain reaction from human placental RNA (Clonetech). hIKK1 was subcloned into pFastBac HTa (Life Technologies) and expressed as N-terminal His6-tagged fusion protein. The hIKK2 cDNA was amplified using a reverse oligonucleotide primer which incorporated the peptide sequence for a FLAG-epitope tag at the C-terminus of the IKK2 coding region (DYKDDDDKD). The hIKK2:FLAG cDNA was subcloned into the baculovirus vector pFastBac. The rhIKK2 ([…]) mutant was constructed in the same vector used for wild type rhIKK2 using a QuikChange™ mutagenesis kit (Stratagene). Viral stocks of each construct were used to infect insect cells grown in 40L suspension culture. […] Cell lysates were stored at −80° C. until purification of the recombinant proteins was undertaken as described below.
A 10-liter culture of baculovirus-expressing IKK2 tagged with FLAG peptide was centrifuged and the cell pellet (MOI=0.1 and 1=72 hrs) was re-suspended in buffer A. These cells were microfluidized, and centrifuged at 100,000×g for 45 min. Supernatant was passed over a G-25 column equilibrated with Buffer A. Protein peak was collected and incubated with anti-FLAG affinity resin on a rotator overnight in buffer B. The resin was washed in batch with 10-15 bed volumes of buffer C. Washed resin was poured into a column and rhIKK2 homodimer was eluted using 5 bed volumes of buffer B containing FLAG peptide. 5 mM DTT, 0.1% NP-40 and BSA (concentrated to 0.1% in final amount) was added to the eluted enzyme before concentrating in using an Amicon membrane with a molecular weight cut-off of 30 kDa. Enzyme was aliquoted and stored at −80° C.
IKKβ kinase activity was measured using a biotinylated IκBα peptide (Gly-LeuLys-Lys-Glu-Arg-Leu-Leu-Asp-Asp-Arg-His-Asp-Ser32-Gly-Leu-Asp-Ser36-Met Lys-Asp-Glu-Glu) (American Peptide Co.). 20 ul of the standard reaction mixture contained 5 μM biotinylated IκBα peptide, 0.1 μCi/reaction [γ^33P] ATP (Amersham) (about 1×10^5 cpm), 1 μM ATP (Sigma), 1 mM DTT (Sigma), 2 mM MgCl2 (Sigma), 2 mM MnCl2 (Sigma), 10 mM NaF (Sigma), 25 mM Hepes (Sigma) buffer, pH 7.6 and 20 μl enzyme solution and 10 ul inhibitor in a final volume of […]. After incubation at 25° C. for 30 min, 150 μl resin (Dowex anion-exchange resin AGIX8 200-400 mesh) in 900 mM formate, pH 3.0 was added to each well to stop the reaction. Resin was allowed to settle for one hour and 50 ul of supernatant was removed to a Micolite-2 flat bottom plate (Dynex). 150 μl of scintillation fluid (Microscint 40) (Packard) was added to each well. Incorporation of [γ-^33P] ATP was measured using a Top-Count NXT (Packard).
In turn, `NCCCNc1c(C(N)=O)sc2c1CCc1ccccc1-2` [Example 4, 3-[(3-aminopropyl)amino]-4,5-dihydronaphtho[1,2-b]thiophene-2-carboxamide hydrochloride] registered an IC50 of 10 to 20 µM.

In turn, `NC(=O)Nc1c(C(N)=O)sc2c1CCc1ccccc1-2` [Example 5, 3-[(aminocarbonyl)amino]4,5-dihydronaphtho[1,2-b]thiophene-2-carboxamide] gave an IC50 of 10 to 20 µM. Next, `NC(=O)Nc1sc2c(c1C(N)=O)CCc1ccccc1-2` [Example 8, 2-[(aminocarbonyl)amino]-4,5-dihydronaphtho[1,2-b]thiophene-3-carboxamide]: not above 1 µM. For `COc1ccc2c(c1)-c1sc(C(N)=O)c(N)c1CC2` [Example 2, 3-amino-8-methoxy-4,5-dihydronaphtho[1,2-b]thiophene-2-carboxamide] the value was 1 to 10 µM; for `NC(=O)c1sc2c(c1N)CCc1ccccc1-2` [Example 1, 3-amino-4,5-dihydronaphtho[1,2-b]thiophene-2-carboxamide], 10 to 20 µM.

With `N#Cc1c(N)sc2c1CCc1ccccc1-2` [Example 6, 2-amino-4,5-dihydronaphtho[1,2-b]thiophene-3-carbonitrile], the IC50 fell in the range of 10 to 20 µM. Next, `CC(=O)Nc1sc2c(c1C(N)=O)CCc1ccccc1-2` [Example 7, 2-(acetylamino)-4,5-dihydronaphtho[1,2-b]thiophene-3-carboxamide]: 10 to 20 µM; `NCCNc1c(C(N)=O)sc2c1CCc1ccccc1-2` [Example 3, 3-[(2-aminoethyl)amino]-4,5-dihydronaphtho[1,2-b]thiophene-2-carboxamide hydrobromide]: 1 to 10 µM.
